How the values were obtained:
[1] = system: bicistronic HCV replicon (replicon RNA, GenBank Accession No. AJ242654); test: HCV Replicon Assay; type: cell-based; conditions: Hepatitis C virus, 72 h, read-out: Replicon IC50

**Q.** What does the source list for `Cc1cc2c(cc1F)c(C(N)=O)c(-c1ccc(S(=O)(=O)N[C@@H](C)C(F)(F)F)cn1)n2C1CCCCC1` [compound 706, 1-cyclohexyl-5-fluoro-6-methyl-2-(5-{[(2S)-1,1,1-trifluoropropan-2-yl]sulfamoyl}pyridin-2-yl)-1H-indole-3-carboxamide]?
**A.** IC50 [1]: < 500 nM; melting point: 273 to 279 °C

**Q.** What does the source list for `C[C@H](NS(=O)(=O)c1ccc(-c2c(C#N)c3cc(Cl)ccc3n2-c2ncccn2)nc1)C(F)(F)F` [compound 708, 6-[5-chloro-3-cyano-1-(pyrimidin-2-yl)-1H-indol-2-yl]-N-[(2S)-1,1,1-trifluoropropan-2-yl]pyridine-3-sulfonamide]?
**A.** IC50 [1]: < 500 nM; melting point: 193 to 196 °C

**Q.** For `CC(=O)N([C@H](C)C(F)(F)F)S(=O)(=O)c1ccc(-c2c(C#N)c3cc(F)c(C)cc3n2C2CCCC2)nc1` [compound 709, N-{[6-(3-cyano-1-cyclopentyl-5-fluoro-6-methyl-1H-indol-2-yl)pyridin-3-yl]sulfonyl}-N-[(2R)-1,1,1-trifluoropropan-2-yl]acetamide], which IC50 [1] is on record?
**A.** The IC50 was under 500 nM.

**Q.** What about the melting point of the same compound?
**A.** Its melting point is 162 to 163 °C.

**Q.** Which results are given for `Cc1cc2c(cc1F)c(C#N)c(-c1ccc(S(=O)(=O)NC(C)(C)C)cn1)n2C1CCCCC1` [compound 710, N-tert-butyl-6-(3-cyano-1-cyclohexyl-5-fluoro-6-methyl-1H-indol-2-yl)pyridine-3-sulfonamide]?
**A.** IC50 [1]: < 500 nM; melting point: 244 to 245 °C

**Q.** With `C[C@@H](NS(=O)(=O)c1ccc(-c2c(C#N)c3cc(F)c(OC(F)F)cc3n2C2CCCC2)nc1)C(F)(F)F` [compound 713, 6-[3-cyano-1-cyclopentyl-6-(difluoromethoxy)-5-fluoro-1H-indol-2-yl]-N-[(2R)-1,1,1-trifluoropropan-2-yl]pyridine-3-sulfonamide] as the compound, how does the IC50 [1] read?
**A.** The IC50 was under 500 nM.

**Q.** And the melting point?
**A.** Its melting point is 197 to 200 °C.

**Q.** For `Cc1cc2c(cc1F)c(C(N)=O)c(-c1ccc(S(=O)(=O)NC(C)(C)C(F)(F)F)cn1)n2C1CCCCC1` [compound 714, 1-cyclohexyl-5-fluoro-6-methyl-2-{5-[(1,1,1-trifluoro-2-methylpropan-2-yl)sulfamoyl]pyridin-2-yl}-1H-indole-3-carboxamide], which IC50 [1] is on record?
**A.** Its IC50 is under 500 nM.

**Q.** And the melting point?
**A.** Its melting point is 245 to 250 °C.

**Q.** For `Cc1cc2c(cc1F)c(C(N)=O)c(-c1ccc(S(N)(=O)=O)cn1)n2C1CCCCC1` [compound 715, 1-cyclohexyl-5-fluoro-6-methyl-2-(5-sulfamoylpyridin-2-yl)-1H-indole-3-carboxamide], which IC50 [1] is on record?
**A.** The IC50 was under 500 nM.

**Q.** What about the melting point of the same compound?
**A.** Its melting point is 254 to 257 °C.

**Q.** For `Cc1cc2c(cc1F)c(C(N)=O)c(-c1ccc(S(=O)(=O)N[C@H](C)C(F)(F)F)cn1)n2C1CCCCC1` [compound 716, 1-cyclohexyl-5-fluoro-6-methyl-2-(5-{[(2R)-1,1,1-trifluoropropan-2-yl]sulfamoyl}pyridin-2-yl)-1H-indole-3-carboxamide], which IC50 [1] is on record?
**A.** Its IC50 is under 500 nM.

**Q.** What about the melting point of the same compound?
**A.** Its melting point is 272 to 276 °C.

**Q.** What does the source list for `COC(=O)c1c(-c2ccc(S(=O)(=O)N[C@@H](C)C(F)(F)F)cn2)n(C2CCCCC2)c2ccc(F)cc12` [compound 717, methyl 1-cyclohexyl-5-fluoro-2-(5-{[(2S)-1,1,1-trifluoropropan-2-yl]sulfamoyl}pyridin-2-yl)-1H-indole-3-carboxylate]?
**A.** IC50 [1]: 500 to 2000 nM; melting point: 232 to 240 °C

**Q.** For `C[C@@H](NS(=O)(=O)c1ccc(-c2c(C(N)=O)c3cc(F)c(OC(F)F)cc3n2C2CCCC2)nc1)C(F)(F)F` [compound 718, 1-cyclopentyl-6-(difluoromethoxy)-5-fluoro-2-(5-{[(2R)-1,1,1-trifluoropropan-2-yl]sulfamoyl}pyridin-2-yl)-1H-indole-3-carboxamide], which IC50 [1] is on record?
**A.** Its IC50 is under 500 nM.

**Q.** What about the melting point of the same compound?
**A.** The melting point was 218 to 220 °C.

**Q.** What does the source list for `CC(C)(C)NS(=O)(=O)c1ccc(-c2c(C#N)c3cc(F)c(O)cc3n2C2CCC2)nc1` [compound 719, N-tert-butyl-6-(3-cyano-1-cyclobutyl-5-fluoro-6-hydroxy-1H-indol-2-yl)pyridine-3-sulfonamide]?
**A.** IC50 [1]: 500 to 2000 nM; melting point: 242 to 245 °C

**Q.** What does the source list for `N#Cc1c(-c2ccc(S(N)(=O)=O)cn2)n(C2CCC2)c2cc(OC(F)F)c(F)cc12` [compound 722, 6-[3-cyano-1-cyclobutyl-6-(difluoromethoxy)-5-fluoro-1H-indol-2-yl]pyridine-3-sulfonamide]?
**A.** IC50 [1]: < 500 nM; melting point: 172 to 175 °C

**Q.** Which IC50 [1] does the source give for `CC(C)(C)NS(=O)(=O)c1ccc(-c2c(C(N)=O)c3cc(F)c(OC(F)F)cc3n2C2CCC2)nc1` [compound 723, 2-[5-(tert-butylsulfamoyl)pyridin-2-yl]-1-cyclobutyl-6-(difluoromethoxy)-5-fluoro-1H-indole-3-carboxamide] here?
**A.** The IC50 was under 500 nM.

**Q.** And the melting point?
**A.** Its melting point is 158 to 160 °C.

**Q.** Which results are given for `C[C@H](NS(=O)(=O)c1ccc(-c2c(C#N)c3cc(F)ccc3n2-c2ccc(C(F)(F)F)cn2)nc1)C(F)(F)F` [compound 724, 6-{3-cyano-5-fluoro-1-[5-(trifluoromethyl)pyridin-2-yl]-1H-indol-2-yl}-N-[(2S)-1,1,1-trifluoropropan-2-yl]pyridine-3-sulfonamide]?
**A.** IC50 [1]: 500 to 2000 nM; melting point: 216 to 218 °C

**Q.** With `CCOc1cc2c(cc1F)c(C#N)c(-c1ccc(S(=O)(=O)N[C@@H](C)C(F)(F)F)cn1)n2C1CCC1` [compound 726, 6-(3-cyano-1-cyclobutyl-6-ethoxy-5-fluoro-1H-indol-2-yl)-N-[(2S)-1,1,1-trifluoropropan-2-yl]pyridine-3-sulfonamide] as the compound, how does the IC50 [1] read?
**A.** The IC50 was under 500 nM.

**Q.** What about the melting point of the same compound?
**A.** The melting point was 193 to 196 °C.

**Q.** With `C[C@H](NS(=O)(=O)c1ccc(-c2cc3cc(F)c(O)cc3n2C2CCC2)nc1)C(F)(F)F` [compound 728, 6-(1-cyclobutyl-5-fluoro-6-hydroxy-1H-indol-2-yl)-N-[(2S)-1,1,1-trifluoropropan-2-yl]pyridine-3-sulfonamide] as the compound, how does the IC50 [1] read?
**A.** The IC50 was 2000 to 5000 nM.

**Q.** What about the melting point of the same compound?
**A.** Its melting point is 193 to 195 °C.

**Q.** Which IC50 [1] does the source give for `CC(C)(NS(=O)(=O)c1ccc(-c2c(C(N)=O)c3cc(F)c(OC(F)F)cc3n2C2CCC2)nc1)C(F)(F)F` [compound 729, 1-cyclobutyl-6-(difluoromethoxy)-5-fluoro-2-{5-[(1,1,1-trifluoro-2-methylpropan-2-yl)sulfamoyl]pyridin-2-yl}-1H-indole-3-carboxamide] here?
**A.** The IC50 was under 500 nM.

**Q.** What about the melting point of the same compound?
**A.** The melting point was 207 to 209 °C.

**Q.** What does the source list for `Cc1cc2c(cc1F)c(C(N)=O)c(-c1ccc(S(=O)(=O)NC3(C(F)(F)F)CC3)cn1)n2C1CCCC1` [compound 730, 1-cyclopentyl-5-fluoro-6-methyl-2-(5-{[1-(trifluoromethyl)cyclopropyl]sulfamoyl}pyridin-2-yl)-1H-indole-3-carboxamide]?
**A.** IC50 [1]: < 500 nM; melting point: 220 to 221 °C

**Q.** For `C[C@H](NS(=O)(=O)c1ccc(-c2c(C(N)=O)c3cc(F)c(C4CC4)cc3n2C2CCC2)nc1)C(F)(F)F` [compound 731, 1-cyclobutyl-6-cyclopropyl-5-fluoro-2-(5-{[(2S)-1,1,1-trifluoropropan-2-yl]sulfamoyl}pyridin-2-yl)-1H-indole-3-carboxamide], which IC50 [1] is on record?
**A.** Its IC50 is under 500 nM.

**Q.** What about the melting point of the same compound?
**A.** The melting point was 225 to 227 °C.

**Q.** For `Cc1cc2c(cc1F)c(C(N)=O)c(-c1ccc(S(=O)(=O)N[C@H](C)C(F)(F)F)cn1)n2C1CCC1` [compound 732, 1-cyclobutyl-5-fluoro-6-methyl-2-(5-{[(2R)-1,1,1-trifluoropropan-2-yl]sulfamoyl}pyridin-2-yl)-1H-indole-3-carboxamide], which IC50 [1] is on record?
**A.** Its IC50 is under 500 nM.

**Q.** And the melting point?
**A.** The melting point was 195 to 197 °C.
